Test results from ChEMBL document CHEMBL3885881, “DrugMatrix”.

Species: Rattus norvegicus
Assay: DrugMatrix - Regimen: Daily Repeat
Assay type: toxicity, organism-based, Sprague-Dawley
Parameters: regimen Daily Repeat, gender Male, age 6-8 weeks
Conditions: in vivo, po, route oral GAVAGE, vehicle 100 % WATER; for ABSOLUTE BASOPHIL / ABSOLUTE EOSINOPHIL / ABSOLUTE LYMPHOCYTE / ABSOLUTE MONOCYTE / ABSOLUTE SEGMENTED NEUTROPHIL / BASOPHIL / EOSINOPHIL / ERYTHROCYTE COUNT / HEMATOCRIT / HEMOGLOBIN / LEUKOCYTE COUNT / LYMPHOCYTE / MEAN CORPUSCULAR HEMOGLOBIN / MEAN CORPUSCULAR HEMOGLOBIN CONCENTRATION / MEAN CORPUSCULAR VOLUME / MONOCYTE / NEUTROPHIL / NUCLEATED RED BLOOD CELLS / PLATELET COUNT: tissue Blood; for ALANINE AMINOTRANSFERASE / ALBUMIN / ALKALINE PHOSPHATASE / ASPARTATE AMINOTRANSFERASE / BLOOD UREA NITROGEN / CARBON DIOXIDE / CHLORIDE / CHOLESTEROL / CREATINE PHOSPHOKINASE / CREATININE / GLUCOSE / LACTATE DEHYDROGENASE / LIPASE / PHOSPHORUS / POTASSIUM / SODIUM / TOTAL BILIRUBIN / TOTAL PROTEIN / URIC ACID: tissue Plasma
[1] = 0 mg/kg, 72 h, dose level Control, time 3 day
[2] = 0 mg/kg, 120 h, dose level Control, time 5 day
[3] = 60 mg/kg, 72 h, dose level Low, time 3 day
[4] = 60 mg/kg, 120 h, dose level Low, time 5 day

For `CC(CCc1ccccc1)NCC(O)c1ccc(O)c(C(N)=O)c1` (configuration not stated) [LABETALOL], the “ABSOLUTE BASOPHIL” value [1] was 0 CELLS/uL, the “ABSOLUTE EOSINOPHIL” value [1] was 168.33 CELLS/uL and the “ABSOLUTE LYMPHOCYTE” value [1] was 13654.17 CELLS/uL. For the same compound, the “ABSOLUTE MONOCYTE” value [1] was 121 CELLS/uL, the “ABSOLUTE SEGMENTED NEUTROPHIL” value [1] was 1223.17 CELLS/uL and the BASOPHIL [1] was 0%. For the same compound, the EOSINOPHIL [1] was 1.17%, the “ERYTHROCYTE COUNT” value [1] was 5.7 x10E6/uL and the HEMATOCRIT [1] was 35.33%. The HEMOGLOBIN [1] was 13.97 G/DL, the “LEUKOCYTE COUNT” value [1] was 15.17 x10E3/uL and the LYMPHOCYTE [1] was 89.83%. The “MEAN CORPUSCULAR HEMOGLOBIN” value [1] was 24.53 pg, the “MEAN CORPUSCULAR HEMOGLOBIN CONCENTRATION” value [1] was 39.53 G/DL and the “MEAN CORPUSCULAR VOLUME” value [1] was 62.05 fL. The MONOCYTE [1] was 0.83%, the NEUTROPHIL [1] was 8.17% and the “NUCLEATED RED BLOOD CELLS” value [1] was 0 /100WBC. For the same compound, the “PLATELET COUNT” value [1] was 1312.17 x10E3/uL, the “ALANINE AMINOTRANSFERASE” value [1] was 50.83 u/L and the ALBUMIN [1] was 4.18 G/DL. For the same compound, the “ALKALINE PHOSPHATASE” value [1] was 334.17 u/L, the “ASPARTATE AMINOTRANSFERASE” value [1] was 82.17 u/L and the “BLOOD UREA NITROGEN” value [1] was 15.5 mg/dL. The “CARBON DIOXIDE” value [1] was 31.33 mmol/L, the CHLORIDE [1] was 99.83 MEQ/L and the CHOLESTEROL [1] was 76 mg/dL. For the same compound, the “CREATINE PHOSPHOKINASE” value [1] was 272.17 u/L, the CREATININE [1] was 0.17 mg/dL and the GLUCOSE [1] was 143 mg/dL. The “LACTATE DEHYDROGENASE” value [1] was 157.5 u/L, the LIPASE [1] was 9.33 u/L and the PHOSPHORUS [1] was 12.18 mg/dL. For the same compound, the POTASSIUM [1] was 6.78 MEQ/L, the SODIUM [1] was 143.9 MEQ/L and the “TOTAL BILIRUBIN” value [1] was 0.22 mg/dL. The “TOTAL PROTEIN” value [1] was 5.85 G/DL, the “URIC ACID” value [1] was 1.7 mg/dL and the “ABSOLUTE BASOPHIL” value [2] was 0 CELLS/uL. The “ABSOLUTE EOSINOPHIL” value [2] was 0 CELLS/uL, the “ABSOLUTE LYMPHOCYTE” value [2] was 13539.33 CELLS/uL and the “ABSOLUTE MONOCYTE” value [2] was 177.67 CELLS/uL. For the same compound, the “ABSOLUTE SEGMENTED NEUTROPHIL” value [2] was 2116.33 CELLS/uL, the BASOPHIL [2] was 0% and the EOSINOPHIL [2] was 0%. For the same compound, the “ERYTHROCYTE COUNT” value [2] was 5.78 x10E6/uL, the HEMATOCRIT [2] was 36.13% and the HEMOGLOBIN [2] was 14.1 G/DL. For the same compound, the “LEUKOCYTE COUNT” value [2] was 15.83 x10E3/uL, the LYMPHOCYTE [2] was 85.83% and the “MEAN CORPUSCULAR HEMOGLOBIN” value [2] was 24.42 pg. The “MEAN CORPUSCULAR HEMOGLOBIN CONCENTRATION” value [2] was 39 G/DL, the “MEAN CORPUSCULAR VOLUME” value [2] was 62.55 fL and the MONOCYTE [2] was 0.83%. For the same compound, the NEUTROPHIL [2] was 13.33%, the “NUCLEATED RED BLOOD CELLS” value [2] was 0.17 /100WBC and the “PLATELET COUNT” value [2] was 1281.17 x10E3/uL. The “ALANINE AMINOTRANSFERASE” value [2] was 55.5 u/L, the ALBUMIN [2] was 4.22 G/DL and the “ALKALINE PHOSPHATASE” value [2] was 345 u/L. For the same compound, the “ASPARTATE AMINOTRANSFERASE” value [2] was 92.5 u/L, the “BLOOD UREA NITROGEN” value [2] was 16.5 mg/dL and the “CARBON DIOXIDE” value [2] was 26.5 mmol/L. The CHLORIDE [2] was 103.5 MEQ/L, the CHOLESTEROL [2] was 78.5 mg/dL and the “CREATINE PHOSPHOKINASE” value [2] was 381.5 u/L. For the same compound, the CREATININE [2] was 0.21 mg/dL, the GLUCOSE [2] was 161.83 mg/dL and the “LACTATE DEHYDROGENASE” value [2] was 487.5 u/L. It also gave an LIPASE [2] of 10.17 u/L, a PHOSPHORUS [2] of 11.83 mg/dL and a POTASSIUM [2] of 6.4 MEQ/L. The SODIUM [2] was 146.95 MEQ/L, the “TOTAL BILIRUBIN” value [2] was 0.22 mg/dL and the “TOTAL PROTEIN” value [2] was 6.22 G/DL. For the same compound, the “URIC ACID” value [2] was 1.83 mg/dL, the “ABSOLUTE BASOPHIL” value [3] was 0 CELLS/uL and the “ABSOLUTE EOSINOPHIL” value [3] was 201.33 CELLS/uL. For the same compound, the “ABSOLUTE LYMPHOCYTE” value [3] was 14909.33 CELLS/uL, the “ABSOLUTE MONOCYTE” value [3] was 67 CELLS/uL and the “ABSOLUTE SEGMENTED NEUTROPHIL” value [3] was 1589 CELLS/uL. For the same compound, the BASOPHIL [3] was 0%, the EOSINOPHIL [3] was 1.33% and the “ERYTHROCYTE COUNT” value [3] was 5.26 x10E6/uL. For the same compound, the HEMATOCRIT [3] was 33.47%, the HEMOGLOBIN [3] was 13 G/DL and the “LEUKOCYTE COUNT” value [3] was 16.77 x10E3/uL. For the same compound, the LYMPHOCYTE [3] was 89.33%, the “MEAN CORPUSCULAR HEMOGLOBIN” value [3] was 24.77 pg and the “MEAN CORPUSCULAR HEMOGLOBIN CONCENTRATION” value [3] was 38.9 G/DL. The “MEAN CORPUSCULAR VOLUME” value [3] was 63.63 fL, the MONOCYTE [3] was 0.33% and the NEUTROPHIL [3] was 9%. The “NUCLEATED RED BLOOD CELLS” value [3] was 0 /100WBC, the “PLATELET COUNT” value [3] was 1299.67 x10E3/uL and the “ALANINE AMINOTRANSFERASE” value [3] was 51.67 u/L. The ALBUMIN [3] was 4.23 G/DL, the “ALKALINE PHOSPHATASE” value [3] was 301.67 u/L and the “ASPARTATE AMINOTRANSFERASE” value [3] was 83.67 u/L. The “BLOOD UREA NITROGEN” value [3] was 14.33 mg/dL, the “CARBON DIOXIDE” value [3] was 31.67 mmol/L and the CHLORIDE [3] was 98.67 MEQ/L. The CHOLESTEROL [3] was 81.33 mg/dL, the “CREATINE PHOSPHOKINASE” value [3] was 278 u/L and the CREATININE [3] was 0.27 mg/dL. For the same compound, the GLUCOSE [3] was 142.33 mg/dL, the “LACTATE DEHYDROGENASE” value [3] was 160 u/L and the LIPASE [3] was 9.33 u/L. The PHOSPHORUS [3] was 12.9 mg/dL, the POTASSIUM [3] was 6.47 MEQ/L and the SODIUM [3] was 145.3 MEQ/L. For the same compound, the “TOTAL BILIRUBIN” value [3] was 0.2 mg/dL, the “TOTAL PROTEIN” value [3] was 5.97 G/DL and the “URIC ACID” value [3] was 1.7 mg/dL. The “ABSOLUTE BASOPHIL” value [4] was 0 CELLS/uL, the “ABSOLUTE EOSINOPHIL” value [4] was 0 CELLS/uL and the “ABSOLUTE LYMPHOCYTE” value [4] was 14854.33 CELLS/uL. The “ABSOLUTE MONOCYTE” value [4] was 209.33 CELLS/uL, the “ABSOLUTE SEGMENTED NEUTROPHIL” value [4] was 1369.67 CELLS/uL and the BASOPHIL [4] was 0%. The EOSINOPHIL [4] was 0%, the “ERYTHROCYTE COUNT” value [4] was 5.65 x10E6/uL and the HEMATOCRIT [4] was 34.93%. The HEMOGLOBIN [4] was 13.63 G/DL, the “LEUKOCYTE COUNT” value [4] was 16.43 x10E3/uL and the LYMPHOCYTE [4] was 90.33%. The “MEAN CORPUSCULAR HEMOGLOBIN” value [4] was 24.17 pg, the “MEAN CORPUSCULAR HEMOGLOBIN CONCENTRATION” value [4] was 39.03 G/DL and the “MEAN CORPUSCULAR VOLUME” value [4] was 61.87 fL. For the same compound, the MONOCYTE [4] was 1.33%, the NEUTROPHIL [4] was 8.33% and the “NUCLEATED RED BLOOD CELLS” value [4] was 0 /100WBC. The “PLATELET COUNT” value [4] was 1103 x10E3/uL, the “ALANINE AMINOTRANSFERASE” value [4] was 59 u/L and the ALBUMIN [4] was 4.03 G/DL. For the same compound, the “ALKALINE PHOSPHATASE” value [4] was 331.33 u/L, the “ASPARTATE AMINOTRANSFERASE” value [4] was 90.67 u/L and the “BLOOD UREA NITROGEN” value [4] was 16.67 mg/dL. The “CARBON DIOXIDE” value [4] was 27.33 mmol/L, the CHLORIDE [4] was 100.67 MEQ/L and the CHOLESTEROL [4] was 96.67 mg/dL. The “CREATINE PHOSPHOKINASE” value [4] was 354.33 u/L, the CREATININE [4] was 0.23 mg/dL and the GLUCOSE [4] was 144 mg/dL. For the same compound, the “LACTATE DEHYDROGENASE” value [4] was 305.33 u/L, the LIPASE [4] was 9.33 u/L and the PHOSPHORUS [4] was 12.57 mg/dL. The POTASSIUM [4] was 6.21 MEQ/L, the SODIUM [4] was 143.47 MEQ/L and the “TOTAL BILIRUBIN” value [4] was 0.23 mg/dL. The “TOTAL PROTEIN” value [4] was 5.93 G/DL and the “URIC ACID” value [4] was 1.53 mg/dL.
